In patent publication US11554138B2, “Bismuth(III) complexes as adjuvants in the treatment of cancer using platinum-based chemotherapy” (THE UNIVERSITY OF HONG KONG, priority 2015, dated 2023):

Experiments:
[1] = tested on: HK-2 (human kidney proximal tubular cell); assay: XTT cell proliferation assay, protection against cisplatin cytotoxicity, HK-2; assay type: cell-based
Description: HK-2 cells treated with culture medium served as a control. The respective survival rate was measured by cell proliferation kit XTT. All data are in triplicates.
(§1) To evaluate the in vitro protection effect of test bismuth(III) complexes against cisplatin stress, two nontumorigenic normal human cell lines, HK-2 (human kidney proximal tubular cell) and MIHA (human hepatocyte cell) are incorporated herein for cell proliferation kit II XTT assay.
(§2) The XTT assay was carried out according to the manufacturer's instruction (Roche Diagnostics, USA). Typically, 1-2×10^4 cells per well were grown in flat-bottom 96-well plates at 37° C. for an overnight under a humidified atmosphere of 5% CO2. Cells pellets were washed with PBS and treated with bismuth(III) complexes at various concentrations (1-100 μM) for 2 hours prior to the exposure to cisplatin (10 μM and 100 μM for HK-2 and MIHA cell line, respectively) for 2 days. Cells grown under culture medium alone were used as a negative control. After a fixed incubation time, 50 μl of the XTT labeling mixture was added to each well and the cells were incubated for 2 hours. The formation of formazan dyes, produced only by metabolic active cells, was detected spectrophotometrically at 490 nm.

[2] = tested on: MIHA (human hepatocyte cell); assay: XTT cell proliferation assay, protection against cisplatin cytotoxicity, MIHA; assay type: cell-based
Description: MIHA cells treated with culture medium served as a control. The respective survival rate was measured by cell proliferation kit XTT. All data are in triplicates.
as §1, §2

testicular cancer = conditions: cited from earlier work
female BALB/c mice = assay: Survival of cisplatin-treated mice (cisplatin induced nephrotoxicity); assay type: in vivo; conditions: 50 mg/kg orally Day -2, -1, 0, 2, 4; cisplatin 30 mg/kg i.p. Day 0; n=8
Description: FIG. 5 Provides survival curves of cisplatin-treated mice with pretreatment of Bi-L1, Bi-L12 and BicitZ, respectively, showing the protective role of bimusth(III) complexes on cisplatin induced nephrotoxicity. All bismuth complexes (50 mg/kg) were administered orally on Day −2, Day −1, Day 0, Day 2 and Day 4. Cisplatin (30 mg/kg) was I.P. injected on Day 0. […] (Log-rank (Mantel-Cox) test, ***P=0.0004)

[3] = highly dependent on pH and ionic strength
[4] = tested on: SKNLP neuroblastoma cells; assay: Cisplatin anti-tumor activity in SKNLP neuroblastoma tumor-bearing mice
Description: 0.2 Million SKNLP neuroblastoma cells transfected with luminescent plasmid were inoculated into the adrenal gland of SCID beige mice. […] Cisplatin (7.5 mg/kg) was i.p. injected at Day 0, Day 7 and Day 14. Tumor growth was monitored by luminescent of the transfected tumor cells.
SKNLP neuroblastoma cells (˜2×10^5 cells) were transfected with luminescent plasmid were inoculated into the adrenal gland of BALB/c nude mice. […] Cisplatin (7.5 mg/kg) was i.p. injected on Day 0, and Day 7. Tumor growth was monitored by luminescent of the transfected tumor cells.
To evaluate whether Bi(III) complexes affect cisplatin's in vivo anti-tumor activity, SKNLP neuroblastoma cells transfected with luminescent plasmid were implanted into mice.

In the case of N.N.[Cl][Pt][Cl] [cisplatin, cis-[PtCl2(NH3)2], reference compound], the “cells survived after exposure to cisplatin only” value ([1]; cisplatin 10 μM, 2 days) is listed as “Less than 40%”, the “cells survived after exposure to cisplatin only” value ([2]; cisplatin 100 μM, 2 days) is listed as “Less than 40%” and the overall cure rate (testicular cancer) is listed as “over 90%”.

With “bismuth(III) zinc(II) citrate complex [BicitZ]” the “increase of cell viability when co-treated with cisplatin” value ([1]; bismuth(III) complex 1-100 μM 2 hours prior to cisplatin 10 μM for 2 days, XTT) was 16.7%, the “increase of cell viability when co-treated with cisplatin” value ([2]; bismuth(III) complex 1-100 μM 2 hours prior to cisplatin 100 μM for 2 days, XTT) was 28.5% and the “survival rate of cisplatin-treated mice (Kaplan-Meier)” value (female BALB/c mice) was “higher survival rate”. The “solubility of the complex in water” value [3] was “over 100 mM”, the “effect on cisplatin's anti-cancer activity in tumor engrafted mice” value ([4]; SCID beige mice, oral 50 mg/Kg Day -1, 0 and every two days, cisplatin 7.5 mg/kg Day 0, 7, 14) was “negligible effects” and the “interference on cisplatin's chemotherapeutic effect” value ([4]; pretreatment at 100 mg/kg, cisplatin 7.5 mg/Kg, SCID beige tumor-bearing mice) was “no interference”. For the same compound, the “SKNLP tumor cells metastases in lung and liver (histology)” value ([4]; same experiments as FIG. 7 and FIG. 8, vs control and cisplatin alone) was “delays SKNLP tumor cells metastases”.
